The source of these data is patent US20260034088A1, “SULFOPROPANOIC ACID DERIVATIVES FOR TREATING NEURODEGENERATIVE DISORDERS” (Alzheon, Inc., priority 2018, published 2026).

Values joined by “and” are separate entries in the source; they are usually repeats but may differ in a detail not shown here. Equal entries are not always repeated.

In series [1] the target is T1, recombinant human Aβ42 peptide (Homo sapiens, UniProt P05067).
T1 construct: recombinant human Aβ42 peptide; purchased BioLegend 843801
The experiment in a line: Ion mobility mass spectrometry (IMS MS) anti-Aβ42 oligomer activity. It is filed as biochemical. The note with it: for inhibition of formation of Aβ42 oligomers: after 24 hours in vitro. The procedure:
The conditions used for mass spectrometry, using a Waters Synapt G2-S, were as follows: positive polarity in sensitivity mode, capillary=2.5 kV, nebulizer=2 mbar, source temperature=80° C., desolvation temperature=60° C., sample cone setting=35 V, source offset setting=60 V, and mass range=500 to 4000 m/z. These conditions were maintained throughout the study to ensure consistency of the data and to avoid influencing the detection of oligomers due to preferential ionization conditions.
Samples were directly infused into the mass spectrometer at a flow rate of 10 μL/min using a Protea PM-1000 Syringe Pump and Hamilton 1 mL Syringe. The data acquisition of the amyloid peptide was performed using a Waters Synapt G2-S quadrupole time of flight mass spectrometer (Q-TOF MS) with traveling wave ion mobility (Waters Corp., Milford, MA). The data were acquired using the systems sensitivity mode to allow for the detection of the less abundant oligomers. Samples were infused at room temperature. The IMS MS studies were conducted at Protea, Inc. (Morgantown, WV).
1 mg of recombinant human Aβ42 peptide from BioLegend (99% purity, cat #843801) was reconstituted in 200 μL of Fisher Optima LC/MS grade water (cat #W6-1) and vortexed vigorously for 2 minutes to solubilize the peptide creating a 5 mg/mL solution. Samples were then diluted to a final concentration of 22 pmol/μL prior to incubation. The sample mixtures were then incubated at room temperature for 0, 4 and 24 hours. After the acquisition of incubated samples was completed, the raw data were analyzed using the Waters MassLynx v2.4 suite with DriftScover v2.7 to visualize drift times for the peptide.
Aβ42 species characterization using IMS MS was performed by direct infusion at 22 pmol/μL in water. The peptide was prepared in water to maintain the native state conformation of the peptide and ion mobility data acquisition was performed to detect and characterize the conformational changes of the native state monomer and any oligomers that may have formed during the incubation.
The data acquisition for Aβ42 peptide was performed using a Waters Synapt G2-S quadrupole time of flight mass spectrometer (Q-TOF MS) with traveling wave ion mobility (Waters Corp., Milford, MA). The data were acquired using the systems sensitivity mode to allow for the detection of the less abundant oligomers. Samples were infused at room temperature as above.
1 mg of 3-SPA was reconstituted in 1 mL of Fisher Optima LC/MS grade water (cat #W6-1) and vortexed vigorously for 2 minutes until completely dissolved. The sample was then diluted to create 220 pmol/μL, and […] solutions to perform a 100-fold, and 1,000-fold molar excess for the binding experiments with Aβ42 peptide. […]

Series [2] can be described thus: Brain penetration of oral 3-SPA in male SD rats (brain, CSF, plasma). It counts as in vivo, Sprague-Dawley rats. The note with it: oral 30 mg/kg. The procedure: A separate group of animals was dosed orally at 30 mg/kg and terminal brain, CSF and plasma samples were collected at 1, 2, 6, and 24 hr (3 animals for each time point) for bioanalyses of 3-SPA in brain and CSF, and to estimate brain penetration relative to plasma concentrations. The in-life study was performed at Agilux Laboratories (Worcester, MA) following quality standards in line with Good Laboratory Practice. Bioanalyses of rat plasma, CSF and brain was preformed using LC-MS/MS at Nextcea. Prior to processing rat brains for bioanalysis, the brains were perfused to remove pooled blood. Pharmacokinetic data analyses were conducted using Winnonlin Professional v5.0.1 (Pharsight, Mountain View, CA).
The plasma concentration of a single dose of 3-SPA, dissolved in saline as a clear solution, administered orally and intravenously to rats at a dose level of 30 mg/kg and 10 mg/kg, respectively, are shown in FIG. 9. Brain, CSF and corresponding plasma levels after a single oral dose of dose of 30 mg/kg of 3-SPA at 1, 2, 6, and 24 hr are shown in FIG. 10. Mean PK curves were used for calculation of pharmacokinetic parameters.

T1 sequence (P05067 672-713 limits assumed): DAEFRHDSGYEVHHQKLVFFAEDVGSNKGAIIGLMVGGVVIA

In the case of `O=C(O)CCS(=O)(=O)O` [Compound 3-SPA, 3-sulfopropanoic acid], the “Aβ42 oligomer species detected (not inhibited)” value in series [1] (4 hr incubation, Aβ42:compound 1:1000) is “dimers, trimers and pentamers”; in series [1] (24 hours incubation, 1,000-fold excess of compound) it was “Only pentamers were detected”. Besides, the “inhibition of formation of Aβ42 oligomers” value in series [1] is “Near complete prevention of formation of Aβ42 oligomers except for pentamers”. The “Brain/Plasma (AUC %)” value in series [2] is 25% and 25.3%.
Turning to `NCCCS(=O)(=O)O` [Tramiprosate, 3-amino-1-propanesulfonic acid, reference compound], the “inhibition of formation of Aβ42 oligomers” value in series [1] is “complete inhibition”.
